Values quoted from earlier work in patent US20080131525A1, “Therapeutic Nutrient Compositions Or Combinations And Methods Of Their Use” (priority 2004, published 2008).
Residues, ends and D or L forms follow the SMILES beside them.

Conditions: human, in vivo

dipeptide in plasma after the end of infusion: no longer detectable in plasma | dipeptide in urine: no ala-gln was detected in urine | half-life: 2.4 to 3.8 min | plasma clearance rate: 1.92 L/min | dipeptide in plasma over the infusion period (24 mg/kg): only trace quantities | hydrolysis after intravenous infusion (iv): rapidly hydrolysed
SMILES: C[C@H](N)C(=O)N[C@@H](CCC(N)=O)C(=O)O [ala-gln, N(2)-L-alanyl-L-glutamine] (H-Ala-Gln-OH)
calculated distribution volume: equivalent to that of the extracellular compartment | tolerability (iv): well tolerated
